Patent US5650395A, “Treatment of pulmonary hypertension” (priority 1995, dated 1997)
Where a SMILES comes first, the peptide text is derived from it. Where no end group is shown, it is not given here. [ ]: non-standard residue; d: D form. dPhe(F5) = N[C@H](Cc1c(F)c(F)c(F)c(F)c1F)C(=O)O

Assays:
GRP receptor [1] = biological target: T1, GRP receptor (Rattus norvegicus, UniProt P52500); assay: GRP receptor binding assay ([125I-Tyr4]bombesin, AR42J cell membranes); settings: 30 min, 4° C., read-out: IC50 (concentration required to inhibit 50% of specific binding of [125I-Tyr4]bombesin)
T1 construct: endogenous in cells; host or cells: Rat AR42J cells
T1 sequence (P52500 whole entry): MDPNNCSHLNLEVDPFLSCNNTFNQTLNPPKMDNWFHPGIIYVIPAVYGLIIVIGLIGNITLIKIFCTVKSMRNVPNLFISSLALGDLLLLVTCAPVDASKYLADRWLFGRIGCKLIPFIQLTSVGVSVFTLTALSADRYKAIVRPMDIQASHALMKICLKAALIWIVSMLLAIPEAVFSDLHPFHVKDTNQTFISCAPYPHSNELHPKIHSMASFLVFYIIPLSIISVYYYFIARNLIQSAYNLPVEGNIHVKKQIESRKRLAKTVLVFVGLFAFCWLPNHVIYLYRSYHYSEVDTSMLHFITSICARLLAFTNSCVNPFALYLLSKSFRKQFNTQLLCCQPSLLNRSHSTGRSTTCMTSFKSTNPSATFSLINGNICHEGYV
Procedure: Membranes for the GRP receptor binding assay were obtained by homogenizing cultured AR42J cells (ATCC No. CRL-1492; American Type Culture Collection, Rockville, Md.) using a Polytron homogenizer (Brinkman Instruments, Westchester, N.Y.) at a setting of 6 for 15 sec. in an ice-cold 50 mM Tris-HCl buffer (Buffer A; Sigma, St. Louis, Mo.). See Singh, et al., 258 Am. J. Physiol. […] (1990). The homogenate was centrifuged twice at 39,000×g (10 min.) with an intermediate resuspension in fresh Buffer A. The final pellets were resuspended in Buffer A containing 0.1 mg/ml bacitracin and 0.1% bovine serum albumin (Buffer B) and held on ice for the receptor binding assay. Both bacitracin and bovine serum albumin were purchased from Sigma, St. Louis, Mo. Aliquots (0.4 ml) of the cell suspension were incubated with 0.05 ml of [^[…] ] bombesin (~2200 Ci/mmol; New England Nuclear, Boston, Mass.) in Buffer B and 0.05 ml of the test peptide (e.g., BIM-26226) at various concentrations (e.g., 0M to 10^-6 M) in Buffer B. […] Louis, Mo.). The filters were then washed three times with 5 ml aliquots of ice-cold Buffer A. Specific binding was defined as the total [^[…] ]bombesin bound in the presence of the test peptide minus that bound in the presence of 1 μM unlabeled GRP. […] BIM-26226, thus, has a high affinity for the GRP receptor. In other words, it is a GRP ligand.

GRP receptor [2] = biological target: T1, GRP receptor; assay: Calcium mobilization assay in AR42J cells (Fura-2AM); format: cell-based; settings: for increase of intracellular calcium concentration: peptide alone at 10 nM, AR42J cells
Procedure: A working example follows:
Rat AR42J cells were cultured in DMEM medium containing 10% fetal bovine serum (Sigma, St. Louis, Mo.) in an atmosphere of 5% CO2 and 95% air at 37° C. After 5 days of culture, the cells were harvested by incubating in a 0.3% EDTA/phosphate buffered saline solution (Sigma, St. Louis, Mo.) (25° C.) and washed twice by centrifugation. The washed cells were resuspended in Hank's-buffered saline solution (HBSS) (Sigma, St. Louis, Mo.) for loading of the fluorescent Ca^2+ indicator Fura-2AM (Molecular Probes, Eugene, Oreg.). Cell suspensions of approximately 10^6 cells/ml were incubated with 2 μM Fura-2AM for 30 min at 25° C. Unloaded Fura-2AM was removed by centrifugation (twice) in HBSS, and the final cell suspensions were transferred to a spectrofluorometer (Hitachi F-2000, Tokyo, Japan) equipped with a magnetic stirring mechanism and a temperature-regulated cuvette holder. After equilibration to 37° C., a test peptide or a known GRP […] was added for measurement of Ca^2+ mobilization. The excitation and emission wavelengths were 340 and 510 nm, respectively.

[3] = test system: patient with pulmonary hypertension; assay: Infusion in a patient with pulmonary hypertension secondary to liver disease (Swan-Ganz catheterization); format: in vivo, human
Description: BIM-26226, a bombesin antagonist, was further administered to a patient to test its efficacy in lowering the pulmonary systolic or diastolic pressure.
The patient, complained of increasing shortness of breath under moderate exertion. […] A clinical diagnosis of pulmonary hypertension, secondary to liver disease, was made.
An 8 G french introducer (Arrow, Reading, Pa.) was inserted into the right internal jugular vein of the patient. A 7 G french triple lumen-balloon inflation lumen Swan-Ganz line (Abbot, N. Chicago, Ill.) was inserted through the introducer. The catheter was first floated through the right atrium and ventricle into the pulmonary artery, and was then connected to a Hewlett Packard monitor (Model 66s, M1166A) using modules M1006A, M1020A, 1029A, 1008A, and M1166A. Measurements of central venous pressure, pulmonary artery pressure, mean pulmonary pressure, cardiac index, cardiac output, and pulmonary vascular resistance were analyzed directly. A 20 G arterial line was inserted into the left radial artery (Arrow, Reading, Pa.) for measurement of systemic blood pressure and blood gas partial pressure estimations.
The study was conducted in two phases. The placebo phase, which lasted 24 hours, consisted of an infusion of normal saline (0.9% NaCl) at a constant rate of 50 ml/hr. The active phase consisted of an infusion of BIM-26226 in increasing concentrations. BIM-26226 was supplied as lyophilized powder. BIM-26226 was reconstituted in water, and then diluted in normal saline initially to give an infusion concentration of 5 μg/kg/hr. The concentration was increased every four hours to a maximum of 200 mcg/kg/hr. BIM-26226 was administered through the jugular line at a constant infusion rate of 50 ml/hr. Observations as detailed above were recorded at least hourly, though more often if indicated. In addition, blood samples were taken every four hours for biochemical profile, hematological screening, and both peripheral and central GRP levels. The GRP level samples were collected on ice, centrifuged, and snap-frozen. Analysis on the GRP levels was performed using an established radioimmunoassay.
FIG. 1 summarizes the study. The pulmonary systolic and diastolic pressures are compared between both the infusion of the saline placebo (Plac sys and Plac dias) and BIM-26226 (BIM sys and BIM dias). The doses of BIM-26226 administered and the administration scheme are shown at the top of FIG. 1, e.g., 5 μg/kg/hr four hours initially.

pulmonary haemodynamics = settings: wide range of experimental conditions; cited from earlier work
[4] = test system: isolated pulmonary arteries; settings: cited from earlier work

COC(=O)[C@H](CC(C)C)NC(=O)[C@H](Cc1c[nH]cn1)NC(=O)[C@@H](C)NC(=O)[C@@H](NC(=O)[C@H](C)NC(=O)[C@H](Cc1c[nH]c2ccccc12)NC(=O)[C@H](CCC(N)=O)NC(=O)[C@H](N)Cc1c(F)c(F)c(F)c(F)c1F)C(C)C [BIM-26226, H-D-F5 -Phe-Gln-TrP-Ala-Val-D-Ala-His-Leu-O-CH3] (H-[dPhe(F5)]QWAV[dA]HL-OMe)
IC50 (GRP receptor [1]): 0.5 nM | increase of intracellular calcium concentration (GRP receptor [2]): no effect | increase of intracellular calcium concentration by bombesin (10 nM) after pretreatment with antagonist (GRP receptor [2]; pretreated with BIM-26226 (10 nM)): 300 nM | reduction of bombesin-induced calcium increase versus bombesin alone (GRP receptor [2]; pretreated with BIM-26226 (10 nM), bombesin 10 nM): 205 nM | adverse events ([3]; active phase of infusion): Other than a mild urticarial response during the early active phase, the patient had no adverse events | pulmonary diastolic pressure ([3]; infusion rate of 200 μg/kg/hr, from 35 mm Hg): 42 mm Hg | pulmonary systolic pressure ([3]; infusion rate of 200 μg/kg/hr, from 90 mm Hg): 55 mm Hg | infusion rate at which pulmonary systolic pressure started to decrease ([3]; intravenous infusion, increasing doses every four hours): 25 µg/kg/h | pulmonary systolic pressure upon rechallenge ([3]; rechallenge after discontinuation): again dramatically decreased | blood biochemistry ([3]; upon infusion): no changes | cardiac index ([3]; upon infusion): no changes | cardiac output ([3]; upon infusion): no changes | peripheral vascular resistance ([3]; upon infusion): no changes | right atrial pressure ([3]; upon infusion): no changes | systemic blood pressure ([3]; upon infusion): no changes | period over which pulmonary pressure rose upon discontinuation of drug administration ([3]; within two half-lives of the drug): 15 min

COc1ccc([C@@H]2Sc3ccccc3N(CCN(C)C)C(=O)[C@@H]2OC(C)=O)cc1 [diltiazem, reference compound]
effect on pulmonary pressure (therapeutic trial) ([3]; patient, before the BIM-26226 study): did not lower the pulmonary pressure

CSCC[C@H](NC(=O)[C@H](CC(C)C)NC(=O)[C@H](Cc1cnc[nH]1)NC(=O)CNC(=O)[C@@H](NC(=O)[C@H](C)NC(=O)[C@H](Cc1c[nH]c2ccccc12)NC(=O)[C@H](CCC(N)=O)NC(=O)[C@H](CC(N)=O)NC(=O)CNC(=O)[C@H](CC(C)C)NC(=O)[C@H](CCCN=C(N)N)NC(=O)[C@H](CCC(N)=O)NC(=O)[C@@H]1CCC(=O)N1)C(C)C)C(N)=O [Bombesin]
increase of intracellular calcium concentration (GRP receptor [2]): 505 nM | in vivo pulmonary haemodynamic effect (pulmonary haemodynamics): neither bombesin nor GRP, under a wide range of experimental conditions, have any demonstrable in vivo pulmonary haemodynamic effect | effect on isolated pulmonary arteries [4]: not to have an effect

GRP: 27-amino acid peptide first isolated from the porcine gut (APVSVGGGTVLAKMYPRGNHWAVGHLM; ends and bridges not checked; UniProt P63153 24-50, looked up)
in vivo pulmonary haemodynamic effect (pulmonary haemodynamics): neither bombesin nor GRP, under a wide range of experimental conditions, have any demonstrable in vivo pulmonary haemodynamic effect
